Measured values as given in patent US20210275646A1, “PHARMACOLOGIC TREATMENT FOR RIGHT VENTRICULAR FAILURE” (The Trustees of Columbia University in the City of New York, priority 2018, published 2021).

Columns and labels:
Type in all cases: cell-based
[1] = test system: neonatal rat ventricular myocytes (NRVMs); test: Western blot of protein expression in siRNA-transfected NRVMs with or without aldosterone
Description: Total proteins were extracted from tissues and NRVMs with the T-PER lysis buffer (Thermo Scientific) supplemented with the Halt Protease and Phosphatase Inhibitor Cocktail (Thermo Scientific). Protein extraction from mouse tissues was performed using a BeadBug Benchtop Homogenizer and zirconium beads (Sigma). Protein quantification was performed with the BCA reagent (Pierce). Total protein samples were resolved on NuPAGE 4-12% Bis-Tris gradient gels (Invitrogen) and transferred to 0.2 μm Nitrocellulose membranes (Biorad) for immunoblotting. Membranes were stained with the LI-COR Revert Total Protein Stain kit and analyzed as per manufacturer's instructions. Membranes were blocked and then incubated with primary antibodies as detailed in Table 2 at 4° C. overnight. Membranes were then washed and incubated with the appropriate LI-COR secondary antibody. Membranes were imaged using the ODYSSEY-Classic infrared system from LI-COR. Protein expression was normalized to total protein.
(§1) Neonatal Sprague-Dawley rats were euthanized by decapitation within the first 24 h after birth and beating hearts heart fragments were rinsed in 1×PBS without pen/strep and digested in 0.1% Trypsin solution in 1×PBS (0.8 ml of 0.1% Trypsin solution per heart) for 15 min at 37° C. The supernatant was collected and the remaining tissue was further digested repeatedly for a total of 10 times, with serial collection of supernatant. Digestion was stopped on ice with 10% FBS, and cells were collected from pooled supernatant by centrifugation at 1500 rpm for 5 min at room temperature. The cell pellet was resuspended in an adequate volume of complete medium. Cells were counted and plated in 10 cm dishes for ˜1 h at 37° C., 5% CO2 at a density of 10×10^6 cells per plate (pre-plating). During this pre-plating step, non-myocytes including fibroblasts adhere to the plate, while NRVMs remain in suspension. The supernatant cells were subsequently seeded on protamine sulfate coated dishes (10^5 cells/cm^2) and were left to attach for 12 h. NRVM primary cultures were maintained in MEM medium supplemented with 10% FBS, penicillin (100 units/ml)/streptomycin (100 μg/ml) (Gibco-Fisher Scientific). 1-β-D-Arabinofuranosyl-cytosine (AraC 20 μM, Calbiochem-Sigma) was also added to the culture medium to inhibit fibroblast proliferation.
(§2) At 24 h following isolation, NRVMs were transfected with siRNAs using the Dharmafect #1 transfection reagent according to the manufacturers protocol (Dharmacon). NRVMs were plated at a density of ˜10^5 cells/cm^2 and transfected with 10 nM of a pool of either non-targeting siRNA (siRNA-scramble control) or siRNAs against the rat Wipi1 gene (siRNA-Wipi1). All siRNAs were ON-TARGETplus SMARTpool siRNAs (Dharmacon). Following a 24 h transfection period, the medium was changed to serum-free DMEM:F12 supplemented with penicillin (100 units/ml)/streptomycin (100 μg/ml). After ˜12 h of serum-starvation, the cells were incubated with aldosterone (250 μg/ml) in serum-free DMEM:F12 culture medium for 48 h at 37° C., 5% Ca. Serum-free DMEM:F12 culture medium without any aldosterone was used as a comparative control to neurohormone activation.

[2] = test system: neonatal rat ventricular myocytes (NRVMs); test: MTT assay of cell viability
Description: To assess NRVM viability, the Vybrant MTT cell proliferation assay kit was used (Molecular probes). Initially, NRVM were seeded on 96-well plates at ˜3×10^4 cells/well (˜10^5 cells/cm^2, the same density as in other assays) and were treated identically as in the siRNA transfection assays (including transfection, serum starvation and neurohormonal stimulation). In addition, increasing number of cells ranging from 2×10^4 to 14×10^4 were used to create a standard curve and to calculate the linearity between absorbance at 595 nm and cell number. Prior to labelling with MTT, the medium was removed and 100 μl of fresh medium was added to each well. The same amount of medium (100 μl) without cells was used as negative control (blank). The cells and the negative control were labeled with 10 μl of 12 mM MTT/well and were incubated at 37° C. for 4 h. Subsequently, 100 μl of SDS-HCL solution was added to each well, mixed thoroughly and incubated for 4 h at 37° C. Finally, the absorbance at 595 nm was measured on a plate reader and the % of cell viability was calculated using the formula:
% of viability=(A595sample/A595reference)×100

[3] = test system: neonatal rat ventricular myocytes (NRVMs); test: MitoSOX Red analysis of mitochondrial superoxide level; conditions: Aldo 1 μM 48 h, si-scramble control NRVMs
Description: Neonatal rat ventricular myocytes (NRVMs) were transfected with scramble or Wipi1-specific siRNAs and then stimulated with aldosterone (Aldo, 1 μM, 48 h) or hydrogen peroxide (H2O2, 50 μM, 2 h).
as §2
Mitochondrial superoxide level was monitored with the MitoSOX™ Red mitochondrial superoxide indicator for live-cell imaging (Molecular Probes). […] The red fluorescent signal was measured with ImageJ software and normalized to the brightfield signal.

[4] = test system: neonatal rat ventricular myocytes (NRVMs); test: RT-qPCR of transcript expression in siRNA-transfected NRVMs with or without aldosterone
Description: Total RNA were extracted from human and mouse tissues and cultured neonatal rat ventricular myocytes (NRVMs) using the Tissue RNA Purification Kit (Norgen Biotek) and the TRIzol reagent (Invitrogen) respectively, according to the manufacturer's instructions. RNA was quantified with the NanoDrop-2000c instrument (Thermo Scientific), and cDNA synthesis was performed with iScript reverse transcription Supermix (BioRad). Quantitative RT-PCR was performed on a CFX96 thermal cycler using the iTac Universal SYBR green Supermix (Biorad) and specific primers. Gene expression was normalized to Rps13, and relative mRNA expression was quantified using the ΔΔCt method. For data robustness and reproducibility, target genes were also normalized to Rps15.
as §1
as §2, with “After ˜12 h of serum-starvation, the cells were incubated with aldosterone (250 μg/ml) in serum-free DMEM:F12 culture medium for 48 h at 37° C., 5% Ca.” left out

[5] = test system: neonatal rat ventricular myocytes (NRVMs); test: LC3-II/I ratio (Western) in NRVMs treated with bafilomycin A or chloroquine, canonical versus non-canonical autophagy; conditions: BafA 100 nM, 1 h; si-Wipi1 and si-scramble transfected NRVMs
[6] = NRVMs, si-Wipi1 vs si-scramble, with or without aldosterone
[7] = aldosterone 48 h, si-scramble control NRVMs, serum starved

C[C@]12CCC(=O)C=C1CC[C@@H]1[C@@H]2[C@@H](O)C[C@]2(C=O)[C@@H](C(=O)CO)CC[C@@H]12 [aldosterone]
Hspb6 protein expression [1, 6]: consistent with transcript data
Snap47 or Prdx5 protein expression [1, 6]: Neither silencing Wipi1 nor stimulation with aldosterone affected
Ser16-HSPB6 phosphorylation ([1]; aldosterone 48 h, si-scramble NRVMs, serum starved): did decrease
BECN1 expression [1, 7]: did not affect
LC3-lipidation [1, 7]: did not affect
Map4 protein expression ([1]; aldosterone, si-scramble control NRVMs): did induce
cell viability [2]: Neither aldosterone stimulation nor silencing Wipi1 negatively impacted
mitochondrial superoxide levels [3]: increased
Snap47 or Prdx5 transcript expression [4, 6]: Neither silencing Wipi1 nor stimulation with aldosterone affected
Map4 transcript levels ([4]; aldosterone stimulation, in either si-Wipi1 or si-scramble NRVMs): did not affect
Hspb6 transcript expression ([4]; aldosterone, both si-Wipi1 and si-scramble NRVMs): stimulated
expression of Nppa, Nppb, Acta1, and Myh7 (fetal gene program) ([4]; si-scramble control NRVMs, Aldo 1 μM 48 h): significantly increased

CO/C1=C\C(C)=C\[C@@H](C)[C@@H](O)[C@@H](C)C/C(C)=C/C=C/[C@H](OC)[C@@H]([C@@H](C)[C@@H](O)[C@H](C)[C@@]2(O)C[C@@H](O)[C@H](C)[C@@H](C(C)C)O2)OC1=O [BafA, bafilomycin A]
LC3-II/I ratio [5]: increased
